{"source": "patent US20230364121A1", "about": "(priority 2020, published 2023)", "key": {"Salmonella/microsome": {"system": "Salmonella/microsome", "settings": "acknowledged by Merck; cited from earlier work"}, "in vitro": {"assay": "in vitro", "settings": "human"}, "[1]": {"system": "SARS-CoV-2 strain BavPatl", "assay": "Antiviral assay in HUH7.5 cells, viral RNA by RT-qPCR", "format": "cell-based", "settings": "2 days; for EC90: Severe acute respiratory syndrome coronavirus 2, 48 h"}, "[2]": {"target": "T1, SARS-Cov-1 nsp12:7L8:8 polymerase complex (Severe acute respiratory syndrome coronavirus, UniProt P0C6X7)", "format": "biochemical"}, "nsp12": {"target": "nsp12 (Severe acute respiratory syndrome coronavirus, UniProt P0C6X7)", "format": "binding, SARS-CoV"}, "[3]": {"target": "Sars-CoV-2 nsp8 labeling by nsp12 (Severe acute respiratory syndrome coronavirus 2, UniProt P0DTD1)", "assay": "nsp8-UMPylation competition assay with RTCs", "format": "biochemical", "settings": "FIG. 13E"}, "SARS CoV1 nsp14": {"target": "SARS CoV1 nsp14 (Severe acute respiratory syndrome coronavirus, UniProt P0C6X7)", "format": "biochemical, SARS-CoV-1"}, "[4]": {"system": "SARS-CoV and SARS-CoV-2 RTCs", "format": "biochemical", "settings": "equimolar concentrations of GTP"}, "[5]": {"target": "T1, SARS-Cov-1 nsp12:7L8:8 polymerase complex", "assay": "biochemical", "format": "biochemical"}, "nsp12-NiRAN": {"target": "nsp12-NiRAN (Severe acute respiratory syndrome coronavirus, UniProt P0C6X7)", "format": "biochemical, SARS-CoV"}, "nsp12 NiRAN active-site": {"target": "nsp12 NiRAN active-site (Severe acute respiratory syndrome coronavirus, UniProt P0C6X7)", "assay": "biochemical", "format": "biochemical, SARS-CoV"}, "nsp12:7:8 RTC": {"target": "nsp12:7:8 RTC (Severe acute respiratory syndrome coronavirus, UniProt P0C6X7)", "format": "biochemical, SARS-CoV"}, "[6]": {"settings": "Severe acute respiratory syndrome coronavirus 2, Huh7.5, 48 h"}}, "note": "Values joined by “and” are separate entries in the source; they are usually repeats but may differ in a detail not shown here. Identical values can stand only once.", "data": [{"smiles": "CC(C)C(=O)OC[C@H]1O[C@@H](n2ccc(NO)nc2=O)[C@H](O)[C@@H]1O", "note": "[Molnupiravir, molnupiravir]", "values": [{"measurement": "AMES test", "setting": "Salmonella/microsome", "result": "positive"}, {"measurement": "CC50", "setting": "in vitro", "result": "> 20", "unit": "µM"}, {"measurement": "EC50", "setting": "[1]", "result": 1710, "unit": "nM"}, {"measurement": "EC90", "setting": "[1]", "result": 4.21, "unit": "µM"}, {"measurement": "EC50", "setting": "[1]; [6]", "result": 1700, "unit": "nM"}]}, {"smiles": "CC(C)C[C@H](NC(=O)OCc1ccccc1)C(=O)N[C@@H](C[C@@H]1CCNC1=O)C(O)S(=O)(=O)O", "note": "(stereo partly drawn) [GC376]", "values": [{"measurement": "CC50", "setting": "in vitro", "result": "> 20", "unit": "µM"}, {"measurement": "EC90", "setting": "[1]", "result": "< 0.15", "unit": "µM"}, {"measurement": "EC50", "setting": "[1]; [6]", "result": "< 150", "unit": "nM"}]}, {"smiles": "C[C@@]1(F)[C@H](O)[C@@H](COP(=O)(O)OP(=O)(O)OP(=O)(O)O)O[C@H]1n1cnc2c(=O)[nH]c(N)nc21", "note": "[AT-9010, 2′-fluoro-2′-C-methylguanosine-5′-triphosphate]", "values": [{"measurement": "Discrimination of ATEA-GTP, average", "setting": "[2]", "result": "27.0+/−7.9 fold and 21.0+/−1.5 fold and 27.0 fold and 21.0 fold"}, {"measurement": "discrimination against GTP", "setting": "[2]", "result": 22, "unit": "fold"}, {"measurement": "inhibition of primer elongation", "setting": "[2]", "result": "no inhibition of primer elongation"}, {"measurement": "thermal stability of nsp12", "setting": "nsp12", "result": "provides more thermodynamic stability than any other native nucleotide"}, {"measurement": "fold more efficient at blocking nsp8 labeling than STP", "setting": "[3]", "result": "4-5 fold"}, {"measurement": "inhibition of N7-MTase activity", "setting": "SARS CoV1 nsp14", "result": "no inhibition"}, {"measurement": "discrimination compared with natural GTP", "setting": "[4]", "result": "~5", "unit": "fold"}, {"measurement": "EC50", "setting": "[5]", "result": "1500 to 2000", "unit": "nM"}, {"measurement": "inhibition of de novo synthesis on poly(A) template", "setting": "[5]", "result": "almost complete inhibition"}, {"measurement": "fold preference AT9010: GTP", "setting": "nsp12-NiRAN", "result": "~1.7", "unit": "fold"}, {"measurement": "fold preference AT9010: UTP", "setting": "nsp12-NiRAN", "result": "~3.2", "unit": "fold"}, {"measurement": "IC50", "setting": "nsp12 NiRAN active-site; IC50 of nsp8 labeling against GTP (FIG. 13C)", "result": "2700 ± 300", "unit": "nM"}, {"measurement": "IC50", "setting": "nsp12 NiRAN active-site; IC50 of nsp8 labeling against UTP (FIG. 13C)", "result": 1900, "unit": "nM"}, {"measurement": "IC50", "setting": "nsp12 NiRAN active-site; IC50 of nsp8 labeling, competition with UTP (FIG. 13A)", "result": 870, "unit": "nM"}, {"measurement": "inhibition of RNA synthesis from poly(C) template", "setting": "nsp12:7:8 RTC", "result": "significantly reduces activity"}, {"measurement": "inhibition of synthesis of poly(U)n RNA from poly(A)27 template", "setting": "nsp12:7:8 RTC", "result": "inhibits synthesis of poly(U)n RNA equally as well as STP"}]}]}
